Test results taken from PMC9299836 (eLife, 2022).
“And” between values parts separate entries of the source, which are not always exact repeats. Equal values may be shown once.

Legend:
mGluR2 [1] = target: T1, mGluR2 (Mus musculus, UniProt Q14BI2); assay: Functional calcium imaging, SNAP-mGluR2 (no FLAG-tag) with chimeric G protein Gqo5 in HEK293T cells; type: cell-based; design: Full length mGluR2 construct with an amber codon (TAG) mutation of amino acid A548 (azi-CRD) or N-terminal SNAP-tag (SNAP-mGluR2); host or cells: HEK293T; conditions: for Intracellular Ca2+ Response (normalized to 1mM glutamate), Mean: Glutamate + 1μM BINA
T1 sequence (Q14BI2 19-872): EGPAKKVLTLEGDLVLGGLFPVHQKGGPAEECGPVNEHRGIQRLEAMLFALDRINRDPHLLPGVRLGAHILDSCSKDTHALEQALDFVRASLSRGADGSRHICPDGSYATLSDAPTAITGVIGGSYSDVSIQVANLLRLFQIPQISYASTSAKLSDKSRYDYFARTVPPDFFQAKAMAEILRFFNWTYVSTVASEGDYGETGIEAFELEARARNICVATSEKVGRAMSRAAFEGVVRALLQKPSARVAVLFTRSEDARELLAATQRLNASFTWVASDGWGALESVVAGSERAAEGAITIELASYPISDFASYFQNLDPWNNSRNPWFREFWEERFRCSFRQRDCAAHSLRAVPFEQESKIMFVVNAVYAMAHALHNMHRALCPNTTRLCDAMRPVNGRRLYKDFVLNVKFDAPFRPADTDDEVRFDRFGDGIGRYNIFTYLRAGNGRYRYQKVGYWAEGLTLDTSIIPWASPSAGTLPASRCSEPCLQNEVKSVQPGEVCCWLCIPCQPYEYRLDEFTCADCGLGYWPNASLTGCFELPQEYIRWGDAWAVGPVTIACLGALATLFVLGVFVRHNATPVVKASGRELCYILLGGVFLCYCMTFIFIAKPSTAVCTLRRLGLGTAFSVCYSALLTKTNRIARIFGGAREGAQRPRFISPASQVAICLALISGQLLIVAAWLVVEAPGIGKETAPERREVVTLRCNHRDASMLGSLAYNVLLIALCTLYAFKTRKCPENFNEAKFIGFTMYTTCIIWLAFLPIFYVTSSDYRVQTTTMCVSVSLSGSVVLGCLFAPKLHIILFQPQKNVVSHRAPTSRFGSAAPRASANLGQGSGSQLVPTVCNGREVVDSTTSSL

mGluR2 [2] = target: mGluR2 (Mus musculus, UniProt Q14BI2, INS715F); assay: Live-cell FRET, azi-ECL2 (7TM domain, extracellular loop 2) sensor in HEK293T cells; conditions: for Mean normalized azi-ECL2 FRET response: glutamate + 10μM modulator, maximal response normalized to 1mM glutamate;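 on all read-outs here: Cy3/Cy5 click-labeled sensor, whole-membrane ROIs per cell, apparent FRET after bleed-through correction, ΔFRET as treatment minus pre-treatment signal, at room temperature, at least three biological replicates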
Chain of mGluR2 (Mus musculus, UniProt Q14BI2, INS715F) (Q14BI2 with tags, fused parts or gaps INS715F): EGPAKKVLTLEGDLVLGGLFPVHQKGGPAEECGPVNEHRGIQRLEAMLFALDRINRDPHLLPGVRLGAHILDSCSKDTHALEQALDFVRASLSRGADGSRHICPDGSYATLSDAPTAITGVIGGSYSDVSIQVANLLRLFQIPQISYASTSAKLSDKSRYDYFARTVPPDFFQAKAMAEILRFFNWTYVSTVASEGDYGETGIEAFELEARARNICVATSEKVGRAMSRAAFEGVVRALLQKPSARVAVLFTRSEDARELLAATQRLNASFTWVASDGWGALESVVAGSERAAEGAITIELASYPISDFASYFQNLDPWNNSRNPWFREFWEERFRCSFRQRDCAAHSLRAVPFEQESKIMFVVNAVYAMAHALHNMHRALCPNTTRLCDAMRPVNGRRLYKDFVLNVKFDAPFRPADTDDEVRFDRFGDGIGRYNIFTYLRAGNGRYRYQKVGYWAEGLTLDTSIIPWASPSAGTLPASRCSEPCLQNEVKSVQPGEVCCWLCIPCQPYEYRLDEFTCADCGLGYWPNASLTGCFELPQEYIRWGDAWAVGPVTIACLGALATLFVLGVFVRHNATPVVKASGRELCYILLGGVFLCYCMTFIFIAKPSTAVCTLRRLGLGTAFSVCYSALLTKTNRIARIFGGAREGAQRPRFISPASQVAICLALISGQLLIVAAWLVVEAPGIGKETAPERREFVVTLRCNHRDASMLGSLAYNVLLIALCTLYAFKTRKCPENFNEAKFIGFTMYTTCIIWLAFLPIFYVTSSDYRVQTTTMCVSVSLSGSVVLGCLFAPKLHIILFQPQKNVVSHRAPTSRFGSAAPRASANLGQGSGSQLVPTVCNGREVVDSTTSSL

mGluR2 [3] = target: T1, mGluR2; assay: Live-cell FRET, SNAP-m2 (VFT domain) inter-subunit sensor in HEK293T cells; conditions: for SNAP-m2 FRET response (PAM DRC): individual cells, normalized to 1mM glutamate;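 on all read-outs here: apparent FRET efficiency from whole-membrane ROIs of single cells, corrected for donor bleed-through and background, ΔFRET as treatment minus pretreatment signal, recorded at room temperature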
mGluR2 [4] = target: mGluR2 (Mus musculus, UniProt Q14BI2, A548F); assay: Live-cell FRET, azi-CRD (cysteine-rich domain) sensor in HEK293T cells; conditions: for Mean normalized FRET response, azi-CRD PAM DRC: glutamate + 10μM BINA, maximal response normalized to 1mM glutamate
Chain of mGluR2 (Mus musculus, UniProt Q14BI2, A548F) (Q14BI2 19-872 A548F): as the sequence (Q14BI2 19-872) above, with A530F counted along it

[5] = 10μM BINA, ([1 mM glutamate + modulator] - [1 mM glutamate]) × 100
[6] = Glutamate + 10μM BINA, log[Glutamate] (M) -5.82391
[7] = Glutamate + 10μM BINA, log[Glutamate] (M) -6.52288
[8] = Glutamate + 10μM BINA, log[Glutamate] (M) -7
[9] = Glutamate + 10μM BINA, log[Glutamate] (M) -7.30103
[10] = Glutamate + 10μM BINA, log[Glutamate] (M) -7.69897

Intracellular Ca2+ Response, % 1mM Glutamate (mGluR2 [1]; 1mM Glutamate + 1uM BINA, individual experiments): 150.888% and 116.9% and 139.124%
Mean ΔEfficacy of glutamate (mGluR2 [1]; Ca2+ response, 1 mM glutamate + 1 μM modulator, ([1 mM glutamate + modulator] - [1 mM glutamate]) × 100): 35.6375
ΔEfficacy of glutamate, individual experiments (mGluR2 [1]; Ca2+ response, 1 mM glutamate + 1 μM modulator, single replicate): 16.9004 and 39.1239 and 50.8883
Mean ΔPotency of glutamate (mGluR2 [1]; Ca2+ response, glutamate + 1 μM modulator, (([modulator + glutamate]EC50 – [glutamate]EC50)/[glutamate]EC50) × 100): -89.8956
ΔPotency of glutamate, individual experiments (mGluR2 [1]; Ca2+ response, glutamate + 1 μM modulator, single replicate): -90.1258 and -89.6956 and -89.8653
Intracellular Ca2+ Response (normalized to 1mM glutamate), Mean (mGluR2 [1]; log[Glutamate] (M) -3): 1.356
Intracellular Ca2+ Response (normalized to 1mM glutamate), Mean (mGluR2 [1]; log[Glutamate] (M) -3.60206): 1.413
Intracellular Ca2+ Response (normalized to 1mM glutamate), Mean (mGluR2 [1]; log[Glutamate] (M) -4.1549): 1.344
Intracellular Ca2+ Response (normalized to 1mM glutamate), Mean (mGluR2 [1]; log[Glutamate] (M) -4.52288): 1.309
Intracellular Ca2+ Response (normalized to 1mM glutamate), Mean (mGluR2 [1]; log[Glutamate] (M) -5): 1.259
Intracellular Ca2+ Response (normalized to 1mM glutamate), Mean (mGluR2 [1]; log[Glutamate] (M) -5.39794): 1.0353
Intracellular Ca2+ Response (normalized to 1mM glutamate), Mean (mGluR2 [1]; log[Glutamate] (M) -5.82391): 0.6392
Intracellular Ca2+ Response (normalized to 1mM glutamate), Mean (mGluR2 [1]; log[Glutamate] (M) -6.52288): 0.1098
Intracellular Ca2+ Response (normalized to 1mM glutamate), Mean (mGluR2 [1]; log[Glutamate] (M) -7): 0
Intracellular Ca2+ Response (normalized to 1mM glutamate), Mean (mGluR2 [1]; log[Glutamate] (M) -7.30103): 0
Intracellular Ca2+ Response (normalized to 1mM glutamate), Mean (mGluR2 [1]; log[Glutamate] (M) -7.69897): 0
azi-ECL2 - ΔEfficacy, Mean ΔEfficacy (mGluR2 [2]; [5]): 42.1338
Mean ΔPotency (mGluR2 [2]; 10μM modulator, (([modulator + glutamate]EC50 – [glutamate] EC50)/[glutamate] EC50) × 100): -51.0252
Mean max response (normalized max ΔFRET) (mGluR2 [2]; azi-ECL2, 1 mM glutamate + 10 μM modulator, normalized to 1 mM glutamate): 1.42
Hill slope of glutamate titration (mGluR2 [2]; azi-ECL2 sensor, + 10 μM modulator): 1.06
Mean normalized azi-ECL2 FRET response (mGluR2 [2]; log[Glutamate] (M) -3): 1.421
Mean normalized azi-ECL2 FRET response (mGluR2 [2]; log[Glutamate] (M) -4.1549): 1.469
Mean normalized azi-ECL2 FRET response (mGluR2 [2]; log[Glutamate] (M) -4.52288): 1.344
Mean normalized azi-ECL2 FRET response (mGluR2 [2]; log[Glutamate] (M) -5): 1.155
Mean normalized azi-ECL2 FRET response (mGluR2 [2]; log[Glutamate] (M) -5.39794): 0.8858
Mean normalized azi-ECL2 FRET response (mGluR2 [2]; log[Glutamate] (M) -5.82391): 0.584
Mean normalized azi-ECL2 FRET response (mGluR2 [2]; log[Glutamate] (M) -6.52288): 0.1491
Mean normalized azi-ECL2 FRET response (mGluR2 [2]; log[Glutamate] (M) -7): 0.03109
Mean normalized azi-ECL2 FRET response (mGluR2 [2]; log[Glutamate] (M) -7.30103): 0.00416
Mean normalized azi-ECL2 FRET response (mGluR2 [2]; log[Glutamate] (M) -7.69897): 0
SNAP-m2 - ΔEfficacy, Mean ΔEfficacy (mGluR2 [3]; [5]): 2.381
SNAP-m2 FRET response (PAM DRC), Mean (mGluR2 [3]; Glutamate + 10μM BINA, log[Glutamate] (M) -3): -1.024
SNAP-m2 FRET response (PAM DRC), Mean (mGluR2 [3]; Glutamate + 10μM BINA, log[Glutamate] (M) -4.1549): -1.044
SNAP-m2 FRET response (PAM DRC), Mean (mGluR2 [3]; Glutamate + 10μM BINA, log[Glutamate] (M) -4.52288): -1.065
SNAP-m2 FRET response (PAM DRC), Mean (mGluR2 [3]; Glutamate + 10μM BINA, log[Glutamate] (M) -5): -1.035
SNAP-m2 FRET response (PAM DRC), Mean (mGluR2 [3]; Glutamate + 10μM BINA, log[Glutamate] (M) -5.39794): -0.9191
SNAP-m2 FRET response (PAM DRC), Mean (mGluR2 [3]; [6]): -0.7275
SNAP-m2 FRET response (PAM DRC), Mean (mGluR2 [3]; [7]): -0.3184
SNAP-m2 FRET response (PAM DRC), Mean (mGluR2 [3]; [8]): -0.07748
SNAP-m2 FRET response (PAM DRC), Mean (mGluR2 [3]; [9]): -0.01427
SNAP-m2 FRET response (PAM DRC) (mGluR2 [3]; [10]): 0
SNAP-m2 FRET response (PAM DRC), Mean (mGluR2 [3]; [10]): 0
Mean max response (normalized max ΔFRET) (mGluR2 [3]; SNAP-m2, 1 mM glutamate + 10 μM modulator, normalized to 1 mM glutamate): 1.02
Mean ΔPotency (mGluR2 [3]; SNAP-m2, 10μM modulator, (([modulator + glutamate]EC50 – [glutamate] EC50)/[glutamate] EC50) × 100): -89.602
Mean ΔEfficacy (mGluR2 [3]; SNAP-m2, 10μM modulator, ([1 mM glutamate + modulator] - [1 mM glutamate]) × 100): 2.381
Hill slope of glutamate titration (mGluR2 [3]; SNAP-m2 sensor, + 10 μM modulator): –1.24
azi-CRD - ΔEfficacy, Mean ΔEfficacy (mGluR2 [4]; [5]): 12.0943
Hill slope of glutamate titration (mGluR2 [4]; azi-CRD sensor, + 10 μM modulator): 1.16
Mean max response (normalized max ΔFRET) (mGluR2 [4]; azi-CRD, 1 mM glutamate + 10 μM modulator, normalized to 1 mM glutamate): 1.12
Mean ΔPotency (mGluR2 [4]; azi-CRD, 10μM modulator, (([modulator + glutamate]EC50 – [glutamate] EC50)/[glutamate] EC50) × 100): -86.2846
Mean normalized FRET response, azi-CRD PAM DRC (mGluR2 [4]; log[Glutamate] (M) -3): 1.121
Mean normalized FRET response, azi-CRD PAM DRC (mGluR2 [4]; log[Glutamate] (M) -4.1549): 1.112
Mean normalized FRET response, azi-CRD PAM DRC (mGluR2 [4]; log[Glutamate] (M) -4.52288): 1.067
Mean normalized FRET response, azi-CRD PAM DRC (mGluR2 [4]; log[Glutamate] (M) -5): 1.001
Mean normalized FRET response, azi-CRD PAM DRC (mGluR2 [4]; log[Glutamate] (M) -5.39794): 0.8946
Mean normalized FRET response, azi-CRD PAM DRC (mGluR2 [4]; log[Glutamate] (M) -5.82391): 0.6333
Mean normalized FRET response, azi-CRD PAM DRC (mGluR2 [4]; log[Glutamate] (M) -6.52288): 0.1759
Mean normalized FRET response, azi-CRD PAM DRC (mGluR2 [4]; log[Glutamate] (M) -7): 0.038
Mean normalized FRET response, azi-CRD PAM DRC (mGluR2 [4]; log[Glutamate] (M) -7.30103): 0
Mean normalized FRET response, azi-CRD PAM DRC (mGluR2 [4]; log[Glutamate] (M) -7.69897): 0
Mean normalized FRET response, azi-CRD PAM DRC (mGluR2 [4]; log[Glutamate] (M) -8): 0
Compound: Cc1c(OCc2cccc(-c3ccc(C(=O)O)cc3)c2)cc2c(c1C)C(=O)C(C1CCCC1)C2 (stereo not drawn) [BINA]
ΔPotency, individual cell responses (mGluR2 [2]; 10μM modulator, single cells, (([modulator + glutamate]EC50 – [glutamate] EC50)/[glutamate] EC50) × 100): -59.4349 and -64.4751 and -43.9117 and -59.7874 and -53.4508 and -10.4259 and -42.6395 and -39.4154 and -48.6344 and -48.1424 and -33.877 and -32.3399 and -71.1589 and -70.5942 and -70.1728 and -67.9438
ΔEfficacy, individual cell responses (mGluR2 [2]; 10μM modulator, single cells, ([1 mM glutamate + modulator] - [1 mM glutamate]) × 100): 29.3333 and 34.3873 and 67.0103 and 45.1311 and 54.8496 and 47.8253 and 100.958 and 52.7779 and 75.0355 and 26.9064 and 8.621 and 25.7313 and 7.026 and 14.2809
SNAP-m2 - ΔEfficacy, individual cell responses (mGluR2 [3]; 10μM BINA, single cells): 2.679 and 0.7326 and 0.3738 and 4.211 and 3.017 and 2.268 and 3.39
SNAP-m2 FRET response (PAM DRC) (mGluR2 [3]; [6]): -0.3851 and -0.8695 and -0.7127 and -0.7584 and -0.7474 and -0.9245 and -0.822 and -0.6977 and -0.989 and -0.9518 and -0.9499 and -0.2243 and -0.901 and -0.9622 and -1.01 and -0.9642 and -0.1942 and -0.3249 and -0.4164 and -0.506
SNAP-m2 FRET response (PAM DRC) (mGluR2 [3]; [7]): -0.06795 and -0.4149 and -0.3185 and -0.3338 and -0.3365 and -0.4306 and -0.3984 and -0.3309 and -0.4302 and -0.4616 and -0.4969 and -0.03041 and -0.4566 and -0.4789 and -0.4597 and -0.5155 and -0.05296 and -0.06597 and -0.09807 and -0.1208 and -0.3936 and -0.2233 and -0.4059
SNAP-m2 FRET response (PAM DRC) (mGluR2 [3]; [8]): -0.0453 and -0.1707 and -0.1814 and -0.1137 and 0 (10×) and -0.1874 and -0.2505 and -0.1579 and -0.1949 and -0.1703
SNAP-m2 FRET response (PAM DRC) (mGluR2 [3]; [9]): 0 (16×) and -0.1321 and -0.1145 and -0.02457
Live-cell FRET max response normalized to 1mM glutamate (mGluR2 [3]; SNAP-m2 sensor, Glutamate + 10μM BINA, individual values (N=7)): 1.03 and 1.023 and 1.0339 and 1.027 and 1.007 and 1.004 and 1.042
azi-CRD - ΔEfficacy, individual cell responses (mGluR2 [4]; 10μM BINA, single cells): 23.3716 and 17.6357 and 26.8405 and 19.7115 and 27.7937 and 0.5839 and -1.206 and 0.442 and -6.324
Live-cell FRET max response normalized to 1mM glutamate (mGluR2 [4]; azi-CRD sensor, Glutamate + 10μM BINA, individual values (N=9)): 1.278 and 1.006 and 0.9879 and 1.004 and 0.9368 and 1.234 and 1.176 and 1.2684 and 1.197
ΔPotency, individual cell (mGluR2 [4]; azi-CRD, 10μM modulator, calculated from individual cell responses): -93.2892 and -92.5628 and -93.8686 and -95.6587 and -92.9779 and -84.725 and -80.1033 and -74.2586 and -75.6122 and -79.7897
